For 15 compounds, IC50 results are on record in US11447477B2, “Indoleamine-2,3-dioxygenase inhibitor, the preparative method and the use thereof” (HINOVA PHARMACEUTICALS INC., priority 2017, dated 2022).

The structures appear in SMILES notation.

The target in the assay is human IDO1 protease (Homo sapiens (Human), UniProt P14902). Briefly: Inhibitory activity against human IDO1 protease (absorbance test method). The class given is biochemical. The conditions noted are these: IDO1 (His-tag) enzyme, absorbance at 320 nm. The protocol: 1) Experimental Materials and Apparatus: • IDO1 (His-tag) enzyme (BPS Bioscience) • L-tryptophan (Sigma) • Methylene blue (Sigma) • Catalase originated from the liver of cattle (Sigma) • L-ascorbic acid (Sigma) • Glycerol (Sigma) • Potassium dihydrogen phosphate solution (Sigma) • Tween 20 (Sigma) • Automatic sampling platform Liquid handler (Bravo & Echo) • Microplate Reader SpectraMax M5e (Molecular Devices)
Chain of human IDO1 protease (P14902 whole entry): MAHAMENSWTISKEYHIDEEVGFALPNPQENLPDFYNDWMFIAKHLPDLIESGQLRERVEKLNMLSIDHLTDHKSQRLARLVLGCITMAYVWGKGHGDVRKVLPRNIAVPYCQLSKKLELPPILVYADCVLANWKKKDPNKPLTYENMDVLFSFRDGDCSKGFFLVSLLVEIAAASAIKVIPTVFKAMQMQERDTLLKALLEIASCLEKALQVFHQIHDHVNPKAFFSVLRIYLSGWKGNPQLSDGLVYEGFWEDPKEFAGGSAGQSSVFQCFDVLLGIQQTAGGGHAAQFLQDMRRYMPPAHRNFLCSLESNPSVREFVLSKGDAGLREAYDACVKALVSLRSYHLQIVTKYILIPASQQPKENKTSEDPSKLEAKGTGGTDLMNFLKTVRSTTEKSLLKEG
2) Test Method of Compounds: The Compounds are Determined by Absorbance Test Method:
The tested compounds and the reference compounds are dissolved in DMSO to prepare a high concentration of storage solution. The stock solution of reference compound was diluted with DMSO to prepare a 100× solution. In the first column of the working plate, 8 μL above tested compounds and 8 μL 100× reference compound were respectively added as the highest concentration, and then the highest concentrations were subjected to three times dilution to obtain 11 concentrations and prepare 100× solution. 0.5 μL solution was transferred from the above plate to the detection plate. […]. For HPE and ZPE control wells, 0.5 μL 100% DMSO was added.
25 μL 2×IDO1 (His-tag) enzyme solution (containing L-ascorbic acid, methylene blue, and catalase) was added to each well. 25 μL reaction solution without IDO1 (His-tag) enzyme was added into HPE control well. The test plate was centrifugated at 1000 rpm for 1 minute to mix well. Then, the test plate was incubated at room temperature for 30 minutes. 25 μL above 2× substrate (L-tryptophan) solution was added to each well. The test plate was centrifugated at 1000 rpm for 1 minute to mix well. The detection plate was placed on ELISA (SpectraMax M5e), the temperature was set at 25° C., and the absorbance (OD value) was measured at 320 nm every 10 minutes till 60 minutes.
Calculating the increase ratio of absorbance: the slope of the absorbance increase curve from 10 min to 60 min is derived from SpectralMax M5e. The inhibition coefficient of compound was calculated: the inhibition ratio of compound=(the absorbance increase ratio of ZPE control well−the absorbance increase ratio of compound well)/(the absorbance increase ratio of ZPE control well−the absorbance increase ratio of HPE control well)×100. Results was analyzed by Prism 5.0.
Turning to `CN(C)S(=O)(=O)N1CC(CNc2nonc2C(=NO)Nc2ccc(F)c(Br)c2)C1` [Compound 81], the IC50 (commonly the concentration needed to halve the response being measured) came to 142 nM.

`NS(=O)(=O)N1CCC(O)(CNc2nonc2C(=NO)Nc2ccc(F)c(Br)c2)C1` (stereo not drawn) [Compound 151] registered an IC50 of 101 nM.

`NS(=O)(=O)N1CC(O)(CNc2nonc2C(=NO)Nc2ccc(F)c(Br)c2)C1` [Compound 92] showed an IC50 of 64 nM.

In turn, `NS(=O)(=O)N1CCC(CCNc2nonc2/C(=N/O)Nc2ccc(F)c(Br)c2)CC1` [Compound 19, N-(3-bromo-4-fluorophenyl)-N′-hydroxyl-4-((2-(1-sulfamoylazacyclohexane-4-yl)ethyl)amino)-1,2,5-oxadiazole-3-formamidine] showed an IC50 of 119 nM.

For the compound `NS(=O)(=O)N1CCC(CNc2nonc2/C(=N/O)Nc2ccc(F)c(Br)c2)C1` (stereo not drawn) [Compound 7, N-(3-bromo-4-fluorophenyl)-N′-hydroxyl-4-(((1-sulfamoylpyrrolidin-3-yl)methyl)amino)-1,2,5-oxadiazole-3-formamidine], the midpoint of inhibition, the IC50, lay at 59 nM.

`CN(C)S(=O)(=O)N1CCC(CNc2nonc2/C(=N/O)Nc2ccc(F)c(Br)c2)C1` (stereo not drawn) [Compound 23, (Z)—N-(3-bromo-4-fluorophenyl)-4-(((1-(N,N-methylsulfonyl)pyrrolidinyl-3-yl)methyl)amino)-N′-hydroxyl-1,2,5-oxadiazol-3-carboxyoximide]: half-maximal inhibition (IC50) was put at 183 nM.

`CS(=O)(=O)N1CCC(CNc2nonc2/C(=N/O)Nc2ccc(F)c(Br)c2)C1` (stereo not drawn) [Compound 20, N-(3-bromo-4-fluorophenyl)-N′-hydroxyl-4-(((1-methylsulfonylazacyclopentan-3-yl)methyl)amino)-1,2,5-oxadiazole-3-formamidine] came in with an IC50 of 79 nM.

Compound `CC(C)(C)OC(=O)N1CC(CNc2nonc2/C(=N/O)Nc2ccc(F)c(Br)c2)C1` [Compound 3, t-Butyl 3-(((4-(N-(3-bromo-4-fluorophenyl)-N′-hydroxylformamidinyl)-1,2,5-oxadiazole-3-yl)amino)methyl)azetidin-1-formate] showed an IC50 of 430 nM.

The compound `NS(=O)(=O)N1CCCC(CNc2nonc2/C(=N/O)Nc2ccc(F)c(Br)c2)C1` (stereo not drawn) [Compound 10, N-(3-bromo-4-fluorophenyl)-N′-hydroxyl-4-(((1-sulfamoylpiperidin-3-yl)methyl)amino)-1,2,5-oxadiazole-3-formamidine] gave an IC50 of 254 nM. This IC50 lies about 1.7-fold lower than the previous one.

`O=S(=O)(C1CC1)N1CC(CNc2nonc2/C(=N/O)Nc2ccc(F)c(Br)c2)C1` [Compound 86, (Z)—N-(3-Bromo-4-fluorophenyl)-4-(((1-(cyclopropylsulfonyl)azido-3-yl)methyl)amino)-N′-hydroxyl-1,2,5-oxadiazol-3-carboxyoximide] yielded an IC50 of 167 nM.

As to `CS(=O)(=O)N1CC(CNc2nonc2C(=NO)Nc2ccc(F)c(Br)c2)C1` [Compound 85], the midpoint of inhibition, the IC50, lay at 115 nM.

`NS(=O)(=O)N1CCCCC1CNc1nonc1/C(=N/O)Nc1ccc(F)c(Br)c1` (stereo not drawn) [Compound 14, N-(3-bromo-4-fluorophenyl)-N′-hydroxyl-4-(((1-sulfamoylazacyclohexane-2-yl)methyl)amino)-1,2,5-oxadiazole-3-formamidine] gave an IC50 of 279 nM.

The compound `O/N=C(\Nc1ccc(F)c(Br)c1)c1nonc1NCC1CCNC1` (stereo not drawn) [Compound 6, N-(3-Bromo-4-fluorophenyl)-N′-hydroxyl-4-((azacyclopentan-3-ylmethyl)amino)-1,2,5-oxadiazole-3-formamidine] yielded an IC50 of 88 nM.

Regarding `NS(=O)(=O)N1CCCC1CNc1nonc1/C(=N/O)Nc1ccc(F)c(Br)c1` (stereo not drawn) [Compound 13, N-(3-Bromo-4-fluorophenyl)-N′-hydroxyl-4-(((1-sulfamoylazacyclopentan-2-yl)methyl)amino)-1,2,5-oxadiazole-3-formamidine], the IC50 came to 214 nM.

Take `NS(=O)(=O)N1CCC(CNc2nonc2/C(=N/O)Nc2ccc(F)c(Br)c2)CC1` [Compound 18, N-(3-bromo-4-fluorophenyl)-N′-hydroxyl-4-(((1-sulfamoylazacyclohexane-4-yl)methyl)amino)-1,2,5-oxadiazole-3-formamidine]: 114 nM corresponded to half-maximal inhibition (IC50).
